Patent US20210300943A1, “OGA INHIBITOR COMPOUNDS” (Janssen Pharmaceutica NV, priority 2018, published 2021)

Target: T1, recombinant human Meningioma Expressed Antigen 5 (MGEA5), also referred to as O-GlcNAcase (OGA) (Homo sapiens, UniProt O60502)
T1 construct: Full length OGA enzyme was purchased at OnGene (cat #TP322411); purchased OnGene (so in the source)
T1 sequence (O60502 1-916): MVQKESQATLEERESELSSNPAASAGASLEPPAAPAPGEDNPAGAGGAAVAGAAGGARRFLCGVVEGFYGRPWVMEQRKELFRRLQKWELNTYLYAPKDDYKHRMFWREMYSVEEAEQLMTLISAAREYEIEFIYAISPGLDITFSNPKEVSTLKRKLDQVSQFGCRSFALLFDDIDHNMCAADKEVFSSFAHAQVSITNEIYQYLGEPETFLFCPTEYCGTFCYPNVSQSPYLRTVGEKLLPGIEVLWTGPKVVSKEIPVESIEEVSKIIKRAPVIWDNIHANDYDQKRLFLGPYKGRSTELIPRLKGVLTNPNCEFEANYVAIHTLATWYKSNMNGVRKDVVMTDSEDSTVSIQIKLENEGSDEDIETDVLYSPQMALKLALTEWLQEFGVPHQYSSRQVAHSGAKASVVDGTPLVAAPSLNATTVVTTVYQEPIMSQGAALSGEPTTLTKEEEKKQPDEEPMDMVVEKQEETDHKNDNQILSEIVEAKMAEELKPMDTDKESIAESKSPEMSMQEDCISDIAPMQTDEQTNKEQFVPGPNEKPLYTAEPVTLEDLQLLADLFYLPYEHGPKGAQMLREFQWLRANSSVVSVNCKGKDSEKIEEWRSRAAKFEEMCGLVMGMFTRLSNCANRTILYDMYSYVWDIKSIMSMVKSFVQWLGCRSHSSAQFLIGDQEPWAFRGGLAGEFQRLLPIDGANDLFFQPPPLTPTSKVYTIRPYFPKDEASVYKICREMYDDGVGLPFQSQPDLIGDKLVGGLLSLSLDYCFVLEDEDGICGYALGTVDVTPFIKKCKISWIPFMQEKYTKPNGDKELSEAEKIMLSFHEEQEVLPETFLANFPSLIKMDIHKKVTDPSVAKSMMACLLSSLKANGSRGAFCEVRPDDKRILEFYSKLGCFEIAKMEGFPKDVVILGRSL
Experiment: OGA biochemical assay (inhibition of FM-GlcNAc hydrolysis, fluorescence)
Conditions: for Emax / Enzymatic Emax (%): maximal effect; for Emax: read-out: Enzymatic Emax (%); for IC50: read-out: Enzymatic hOGA, pIC50 (converted)
Description: The assay is based on the inhibition of the hydrolysis of fluorescein mono-β-D-N-Acetyl-Glucosamine (FM-GlcNAc) (Mariappa et al. 2015, Biochem J 470:255) by the recombinant human Meningioma Expressed Antigen 5 (MGEA5), also referred to as O-GlcNAcase (OGA). The hydrolysis FM-GlcNAc (Marker Gene technologies, cat #M1485) results in the formation of β-D-N-glucosamineacetate and fluorescein. The fluorescence of the latter can be measured at excitation wavelength 485 nm and emission wavelength 538 nm. An increase in enzyme activity results in an increase in fluorescence signal. Full length OGA enzyme was purchased at OnGene (cat #TP322411). The enzyme was stored in 25 mM Tris.HCl, pH 7.3, 100 mM glycine, 10% glycerol at −20° C. Thiamet G and GlcNAcStatin were tested as reference compounds (Yuzwa et al. 2008 Nature Chemical Biology 4:483; Yuzwa et al. 2012 Nature Chemical Biology 8:393). The assay was performed in 200 mM Citrate/phosphate buffer supplemented with 0.005% Tween-20. 35.6 g Na2HPO42H2O (Sigma, #C0759) were dissolved in 1 L water to obtain a 200 mM solution. 19.2 g citric acid (Merck, #1.06580) was dissolved in 1 L water to obtain a 100 mM solution. pH of the sodiumphosphate solution was adjusted with the citric acid solution to 7.2. The buffer to stop the reaction consists of a 500 mM Carbonate buffer, pH 11.0. 734 mg FM-GlcNAc were dissolved in 5.48 mL DMSO to obtain a 250 mM solution and was stored at −20° C. OGA was used at a 2 nM concentration and FM-GlcNAc at a 100 uM final concentration. Dilutions were prepared in assay buffer.
50 nl of a compound dissolved in DMSO was dispensed on Black Proxiplate TM 384 Plus Assay plates (Perkin Elmer, #6008269) and 3 μl fl-OGA enzyme mix added subsequently. Plates were pre-incubated for 60 min at room temperature and then 2 μl FM-GlcNAc substrate mix added. […] Plates were briefly centrifuged for 1 min at 1000 rpm and incubate at room temperature for 6 h. To stop the reaction 5 μl STOP buffer were added and plates centrifuge again 1 min at 1000 rpm. Fluorescence was quantified in the Thermo Scientific Fluoroskan Ascent or the PerkinElmer EnVision with excitation wavelength 485 nm and emission wavelength 538 nm.
For analysis a best-fit curve is fitted by a minimum sum of squares method. From this an IC50 value and Hill coefficient was obtained. High control (no inhibitor) and low control (saturating concentrations of standard inhibitor) were used to define the minimum and maximum values.

Structure (SMILES)	Emax [%]	IC50 [nM]	Enzymatic Emax (%)
Cc1cc(OC[C@@H]2CCCN(C(C)c3ccc4c(n3)OCCO4)C2)cc(C)n1 (mixture of isomers) [Product 20]	98	316	–
Cc1cc(C[C@H]2CCCN(C(C)c3ccc4c(c3)OCC(=O)N4)C2)cc(C)n1 (mixture of isomers) [Product 58]	102	126	–
Cc1cc(C[C@H]2CCCN(C(C)c3ccc4c(n3)OCC(=O)N4C)C2)cc(C)n1 (mixture of isomers) [Product 62]	77	3160	–
Cc1cc(C[C@H]2CCCN(C(C)c3cc4c(cc3C)OCCO4)C2)cc(C)n1 (mixture of isomers) [Product 126]	1	> 10000	–
COc1cc(NC[C@@H]2CCCN(C(C)c3ccc4c(n3)OCCO4)C2)cc(C)n1 (mixture of isomers) [Product 27]	102	200	–
Cc1cc([C@H]2CCCN([C@@H](C)c3ccc4c(c3)OCC4)C2)cc(C)n1 (single isomer, unassigned) [Product 5]	102	3.16	–
Cc1cc([C@@H]2CCCN([C@H](C)c3ccc4c(c3)OCC4)C2)cc(C)n1 (single isomer, unassigned) [Product 6]	101	126	–
COc1cc(NC[C@H]2CCCN(C(C)c3ccc4c(n3)OCCO4)C2)cc(C)n1 (single isomer, unassigned) [Product 25]	103	79.4	–
COc1cc(NC[C@@H]2CCCN(C(C)c3ccc4c(n3)OCCO4)C2)cc(C)n1 (single isomer, unassigned) [Product 28]	99	1000	–
COc1cc(NC[C@@H]2CCCN(C(C)c3ccc4c(n3)OCCO4)C2)cc(C)n1 (single isomer, unassigned) [Product 29]	–	79.4	97
Cc1cc(NC[C@H]2CCCN([C@H](C)c3ccc4c(n3)OCCO4)C2)cc(C(F)(F)F)n1 (single isomer, unassigned) [Product 32]	99	398	–
Cc1cc(NCC2CCCN(C(C)c3ccc4c(n3)OCCO4)C2)cc(C(F)(F)F)n1 (single isomer, unassigned) [Product 34]	–	200	100
Cc1cc(NCC2CCCN(C(C)c3ccc4c(n3)OCCO4)C2)cc(C(F)(F)F)n1 (single isomer, unassigned) [Product 35]	–	2510	88
Cc1cc(C[C@H]2CCCN([C@H](C)c3cc4c(cc3F)OCCO4)C2)cc(C)n1 (single isomer, unassigned) [Product 41]	94	1000	–
Cc1cc(C[C@H]2CCCN(C(C)c3ccc4c(n3)OCCO4)C2)cc(C)n1 (single isomer, unassigned) [Product 45]	98	501	–
Cc1cc(C[C@H]2CCCN(C(C)c3cnc4c(c3)OCCN4)C2)cc(C)n1 (single isomer, unassigned) [Product 51]	101	200	–
Cc1cc(C[C@H]2CCCN(C(C)c3ccc4c(n3)OCC(=O)N4)C2)cc(C)n1 (single isomer, unassigned) [Product 60]	–	3160	78

Structure (SMILES)	Emax [%]	IC50 [nM]	Enzymatic Emax (%)
Cc1cc(C[C@H]2CCCN([C@@H](C)c3cnc4c(c3)OCCO4)C2)cc(C)n1 (single isomer, unassigned) [Product 131]	97	501	–
Cc1cc([C@@H]2CCCN([C@H](C)c3cc4c(cc3F)OCCO4)C2)cc(C(F)(F)F)n1 (single isomer, unassigned) [Product 141]	98	501	–
Cc1cc([C@H]2CCCN([C@H](C)c3cc4c(cc3F)OCCO4)C2)cc(C(F)(F)F)n1 (single isomer, unassigned) [Product 142]	52	–	–
Cc1cc([C@@H]2CCCN([C@@H](C)c3cc4c(cc3F)OCCO4)C2)cc(C(F)(F)F)n1 (single isomer, unassigned) [Product 143]	87	2510	–
Cc1cc([C@H]2CCCN([C@@H](C)c3cc4c(cc3F)OCCO4)C2)cc(C(F)(F)F)n1 (single isomer, unassigned) [Product 144]	99	3.16	–
Cc1cc([C@H]2CCCN([C@H](C)c3ccc4c(c3)OCC4)C2)cc(C)n1 [Product 3]	97	794	–
Cc1cnc(C)c(C2CCCN(C(C)c3ccc4c(n3)OCCO4)C2)n1 (stereo not shown) [Product 12]	96	501	–
Cc1cc(O[C@@H]2CCCN([C@@H](C)c3cnc4c(c3)OCCN4)C2)cc(C(F)(F)F)n1 [Product 17]	99	79.4	–
Cc1cc(NCC2CCCN(C(C)c3cc4c(cc3F)OCCO4)C2)cc(C)n1 (stereo not shown) [Product 37]	102	5.01	–
COc1cc(NCC2CCCN(C(C)c3cc4c(cc3F)OCCO4)C2)cc(C)n1 (stereo not shown) [Product 38]	102	6.31	–
Cc1cc(C[C@H]2CCCN(Cc3cc4c(cc3C)OCCO4)C2)cc(C)n1 [Product 39]	92	794	–
Cc1cc(C[C@H]2CCCN(Cc3cnc4c(c3)OCCN4C)C2)cc(C)n1 [Product 53]	94	794	–
Cc1cc(C[C@H]2CCCN(Cc3ccc4c(n3)OCC(=O)N4)C2)cc(C)n1 [Product 54]	78	3160	–
Cc1cc(C[C@H]2CCCN(Cc3cnc4c(c3)OCC(=O)N4)C2)cc(C)n1 [Product 55]	90	1260	–
COc1cc(C[C@H]2CCCN([C@@H](C)c3ccc4c(n3)OCCO4)C2)cc(C)n1 [Product 65]	102	200	–
Cc1cc(C[C@H]2CCCN(Cc3cnc4c(c3)OCC(=O)N4C)C2)cc(C)n1 [Product 127]	10	> 10000	–
CC(c1ccc2c(n1)OCCO2)N1CCCC(Oc2ncc(F)cc2F)C1 (stereo not shown) [Product 134]	96	158	–
